Among the test systems are A498; CCRF-CEM; COLO 205; HCT-15; K562; MDA-MB-231; MDA-N; MOLT-4; NCI-H226; NCI-H23; NCI/ADR-RES; SF-295; SK-MEL-2; SK-OV-3; SNB-19; TK-10; UACC-257; ACHN; OVCAR-5.
What all share (assay): inhibition of tumour cell growth, NCI panel, 48 h

Molecules are shown by their SMILES.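 Test compounds were applied to cells in 96-well plates for 48 hours at 5 doses. GI50: concentration for 50% inhibition of growth.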 Active and inactive are the calls of the source. No stated cut-off is given here; in the data, active = GI50 up to about 1.1 µM and inactive = higher.

For `C=CC(CCc1ccc(C(=O)OCC)cc1)c1c(N)nc(N)[nH]c1=O` (stereo not drawn), the GI50 in the assay on A498 is 21.2 µM (inactive); in the assay on CCRF-CEM, 73.3 µM (inactive); in the assay on COLO 205, > 100 µM (inactive); with HCT-15, greater than 100 µM; in the assay with K562 it was > 100 µM (inactive); in the assay with MDA-MB-231, > 100 µM (inactive). Also, the GI50 in the assay on MDA-N was 76.6 µM (inactive); with MOLT-4, 59.4 µM (inactive); in the assay on NCI-H226 it was 84.9 µM (inactive); in the assay on NCI-H23 it was 91.8 µM (inactive); with NCI/ADR-RES, > 100 µM (inactive); in the assay with SF-295 it was 57.8 µM (inactive). Further, the GI50 in the assay with SK-MEL-2 is > 100 µM (inactive); with SK-OV-3, > 100 µM (inactive); in the assay with SNB-19, > 100 µM (inactive); with TK-10, 60.3 µM (inactive); with UACC-257, 35.1 µM (inactive).

For `Oc1ccc(-c2cc(-c3c(O)cc(O)cc3O)on2)cc1`, the GI50 with ACHN was 36.4 µM (inactive); in the assay on CCRF-CEM, 23.2 µM (inactive); in the assay with COLO 205 it was > 10 µM (inactive); in the assay on HCT-15, 56.8 µM; in the assay on K562, 40.5 µM (inactive); in the assay with MDA-MB-231, > 100 µM (inactive). Also, the GI50 in the assay with MDA-N was 50.2 µM (inactive); in the assay with MOLT-4, 38.5 µM (inactive); in the assay with NCI-H226 it was 70.8 µM (inactive); with NCI-H23, > 100 µM (inactive); in the assay with NCI/ADR-RES it was > 100 µM (inactive); with OVCAR-5, > 100 µM (inactive). Also, the GI50 in the assay with SF-295 is 74.3 µM (inactive); in the assay on SK-MEL-2, > 100 µM (inactive); with SK-OV-3, 56.5 µM (inactive); in the assay with SNB-19 it was 91.2 µM (inactive); with TK-10, 55.1 µM (inactive); in the assay with UACC-257, 97.5 µM (inactive).

In the case of `CSc1csc(-c2ccc(-c3ccc(-c4cc(SC)cs4)s3)s2)c1`, the GI50 is > 100 µM (inactive) with ACHN; > 100 µM (inactive) in the assay with CCRF-CEM; > 100 µM (inactive) with COLO 205; greater than 100 µM in the assay on HCT-15; > 100 µM (inactive) with K562; > 100 µM (inactive) with MDA-MB-231. The GI50 with MDA-N, in the assay on MOLT-4, in the assay on NCI-H226, in the assay on NCI-H23, in the assay on NCI/ADR-RES and in the assay with OVCAR-5 was > 100 µM (inactive) each time. The GI50 in the assay with SF-295, in the assay on SK-MEL-2, in the assay on SK-OV-3, in the assay on SNB-19, with TK-10 and in the assay on UACC-257 was > 100 µM (inactive) in each case.

Consider `NC1=NCC(CN2CCOCC2)O1` (stereo not drawn), for which the GI50 with A498 is > 100 µM (inactive); in the assay on ACHN, > 100 µM (inactive); in the assay on CCRF-CEM, > 100 µM (inactive); with COLO 205, > 100 µM (inactive); in the assay on HCT-15, greater than 100 µM; with K562, > 100 µM (inactive). Further, the GI50 in the assay on MDA-MB-231, in the assay on MDA-N, in the assay on MOLT-4, with NCI-H23, in the assay with NCI/ADR-RES and with OVCAR-5 was > 100 µM (inactive) each time. Moreover, the GI50 in the assay with SF-295, with SK-MEL-2, in the assay with SK-OV-3, with SNB-19, with TK-10 and in the assay on UACC-257 was > 100 µM (inactive) each time.

In the case of `CNC(=S)N/N=C(\C)c1ccc(OC)cc1O`, the GI50 is 95.7 µM (inactive) in the assay with A498; > 100 µM (inactive) with ACHN; 0.865 µM (active) in the assay on CCRF-CEM; 0.258 µM (active) with COLO 205; 16 µM with HCT-15; 0.7 µM (active) in the assay on K562. The GI50 with MDA-MB-231 was > 100 µM (inactive); in the assay with MDA-N it was > 100 µM (inactive); in the assay with MOLT-4 it was 3.33 µM (inactive); with NCI-H226 it was 73.8 µM (inactive); in the assay on NCI-H23, > 100 µM (inactive); in the assay with NCI/ADR-RES it was 28.8 µM (inactive). Besides, the GI50 in the assay with OVCAR-5, in the assay on SF-295, with SK-MEL-2, in the assay on SK-OV-3, with SNB-19 and with UACC-257 was > 100 µM (inactive) in each case.

With `CSC(=O)c1sc(SC)[n+](-c2ccccc2)c1O`, the GI50 with A498 is 30.1 µM (inactive); in the assay on ACHN, 27.9 µM (inactive); in the assay on CCRF-CEM, 8.28 µM (inactive); in the assay on COLO 205, 27.7 µM (inactive); in the assay with HCT-15, 21 µM; with K562 it was 16.6 µM (inactive). In addition, the GI50 with MDA-MB-231 is 11.3 µM (inactive); in the assay on MDA-N, 17 µM (inactive); with MOLT-4, 11.1 µM (inactive); in the assay with NCI-H226, 22.5 µM (inactive); with NCI-H23, 17.7 µM (inactive); with NCI/ADR-RES it was 30.3 µM (inactive). Also, the GI50 in the assay with OVCAR-5 is 18.7 µM (inactive); with SF-295, 14.9 µM (inactive); in the assay on SK-MEL-2 it was 22 µM (inactive); with SK-OV-3 it was 34.4 µM (inactive); with SNB-19, 19.6 µM (inactive); with TK-10 it was 18.2 µM (inactive).

On to `CSc1c(C#N)c(N)n(-c2ccc(Cl)cc2)c(=O)c1C#N`, for which the GI50 is > 100 µM (inactive) with A498; > 100 µM (inactive) with COLO 205; greater than 100 µM in the assay on HCT-15; > 100 µM (inactive) with K562; > 100 µM (inactive) with MDA-MB-231; > 100 µM (inactive) in the assay on MDA-N. The GI50 was 61.4 µM (inactive) in the assay on MOLT-4; 59.7 µM (inactive) with NCI-H226; > 100 µM (inactive) in the assay with NCI-H23; > 100 µM (inactive) in the assay on NCI/ADR-RES; > 100 µM (inactive) in the assay on OVCAR-5; > 100 µM (inactive) in the assay on SK-MEL-2. For the same molecule, the GI50 with SK-OV-3, with SNB-19, with TK-10 and in the assay on UACC-257 was > 100 µM (inactive) in each case.

Turning to `COc1ccc(NC(=O)CC(=O)N2N=C(c3ccccc3)C(/N=N/c3ccc(S(=O)(=O)CCOS(=O)(=O)O)cc3)C2=O)cc1` (stereo not drawn), the GI50 in the assay on A498 was > 100 µM (inactive); in the assay on ACHN it was > 100 µM (inactive); in the assay on CCRF-CEM it was > 100 µM (inactive); with COLO 205, > 100 µM (inactive); in the assay on HCT-15, greater than 100 µM; with K562 it was > 100 µM (inactive). The GI50 in the assay on MDA-MB-231, in the assay with MDA-N, with MOLT-4, with NCI-H226, with NCI-H23 and in the assay with NCI/ADR-RES was > 100 µM (inactive) throughout. The GI50 in the assay on SF-295, in the assay on SK-MEL-2, with SK-OV-3, with SNB-19, in the assay with TK-10 and with UACC-257 was > 100 µM (inactive) in each case.

Consider `Cc1ccc2nc(N/N=C/c3cccc(C)n3)cc(C)c2c1`, for which the GI50 is 17.9 µM (inactive) with A498; 15.7 µM (inactive) in the assay on ACHN; 15 µM (inactive) in the assay on COLO 205; 14.2 µM with HCT-15; 45 µM (inactive) in the assay on K562; 18.6 µM (inactive) with MDA-MB-231. Besides, the GI50 with MDA-N was 16.3 µM (inactive); with NCI-H226, 24.7 µM (inactive); with NCI-H23, 18.8 µM (inactive); in the assay on NCI/ADR-RES, 16.2 µM (inactive); in the assay with OVCAR-5, 14.3 µM (inactive); with SF-295, 15.4 µM (inactive). Besides, the GI50 with SK-MEL-2 is 18.8 µM (inactive); in the assay on SK-OV-3, 15.4 µM (inactive); in the assay on SNB-19 it was 20.5 µM (inactive); in the assay with TK-10, 14.7 µM (inactive); in the assay with UACC-257, 16.9 µM (inactive).

Turning to `CN(C)c1ccc(/C=C2\C[C@H]3[C@@H]4CC=C5C[C@@H](N6CCCC6)CC[C@]5(C)[C@H]4CC[C@]3(C)[C@H]2O)cc1`, the GI50 in the assay on A498 was 1.01 µM (active); in the assay with ACHN, 0.873 µM (active); in the assay with COLO 205, 1.52 µM (inactive); in the assay on HCT-15 it was 1.57 µM; in the assay on K562, 1.21 µM (inactive); with MDA-MB-231 it was 0.973 µM (active). Moreover, the GI50 in the assay with MDA-N is 1.01 µM (active); in the assay with MOLT-4 it was 1.82 µM (inactive); with NCI-H226 it was 0.813 µM (active); in the assay with NCI-H23, 3.66 µM (inactive); in the assay with NCI/ADR-RES, 1.62 µM (inactive); with OVCAR-5 it was 3.99 µM (inactive). The GI50 with SF-295 is 1.13 µM (inactive); with SK-MEL-2, 1.07 µM (active); in the assay with SK-OV-3 it was 4.39 µM (inactive); with SNB-19 it was 1.5 µM (inactive); in the assay on TK-10, 1.24 µM (inactive); with UACC-257 it was 0.957 µM (active).

`C=CCN(c1cc(OC)c2c(c1[N+](=O)[O-])C(C)(SC)C(=O)N2)S(C)(=O)=O` (stereo not drawn): the GI50 in the assay with A498 was > 100 µM (inactive); with ACHN it was > 100 µM (inactive); in the assay on COLO 205, > 100 µM (inactive); with HCT-15 it was greater than 100 µM; in the assay with K562, > 100 µM (inactive); with MDA-MB-231 it was > 100 µM (inactive). Moreover, the GI50 with MDA-N is > 100 µM (inactive); with NCI-H226 it was > 100 µM (inactive); in the assay on NCI-H23 it was > 100 µM (inactive); in the assay on NCI/ADR-RES, > 100 µM (inactive); with SF-295 it was 77.1 µM (inactive); with SK-MEL-2, > 100 µM (inactive). The GI50 was > 100 µM (inactive) with SK-OV-3, 96.6 µM (inactive) in the assay on SNB-19, 50.5 µM (inactive) in the assay with TK-10 and > 100 µM (inactive) with UACC-257.

Take `Cn1c(CCC2(C)Cc3ccccc3C(=O)O2)cc2ccccc2c1=O` (stereo not drawn): the GI50 is 25.1 µM (inactive) with A498; 12.7 µM (inactive) in the assay with CCRF-CEM; 27.1 µM (inactive) in the assay with COLO 205; 33.7 µM with HCT-15; 2.96 µM (inactive) in the assay with K562; 45.1 µM (inactive) in the assay on MDA-MB-231. Moreover, the GI50 with MDA-N is 22.6 µM (inactive); in the assay with MOLT-4, > 10 µM (inactive); in the assay with NCI-H226 it was 22 µM (inactive); in the assay on NCI-H23, 24.7 µM (inactive); in the assay with NCI/ADR-RES, 26.3 µM (inactive); in the assay on OVCAR-5 it was 32.8 µM (inactive). In addition, the GI50 with SF-295 is > 100 µM (inactive); in the assay on SK-MEL-2, 24.2 µM (inactive); in the assay on SK-OV-3 it was 30.5 µM (inactive); with SNB-19, 55.6 µM (inactive).

The values above are taken from ChEMBL document CHEMBL1201862, “PubChem BioAssay data set” (2004).
